Test results from publication PMC4770308, “Discovery of a Chemical Tool Inhibitor Targeting the Bromodomains of TRIM24 and BRPF” (Journal of Medicinal Chemistry, 2015).

Experiments:
[1] = test system: panel of diverse cancer cell lines (MCF-7, RKO, MM1S, RCH-ACH, JJN-3); experiment: Cytotoxicity assay (CellTiter-Glo), cancer cell line panel; assay type: cell-based; conditions: 72 hours, 5 x E-05 M to 8 x E-08 M
Description: (§1) A more comprehensive evaluation of the role of TRIM24 in cancer cell proliferation and chromatin biology would require the development of a tool compound with improved selectivity.
(§2) Calorimetric experiments were performed on a VPqITC microqcalorimeter (MicroCalTM, LLC Northampton, MA). Protein solutions were buffer exchanged by gel filtration or dialysis into buffer (20 mM Hepes pH 7.5, 150 mM NaCl, and 0.5 mM tris (2qcarboxyethyl) phosphine (TCEP)]. All measurements were carried out at 293.15 K while stirring at 286 rpm. The micro syringe was loaded with a protein solution of 250 µM, the compound solution was prepared at 20 µM and 2mL for the cell. All injections were performed using an initial injection of 2 µl followed by 34 injections of 8 µl with a duration of 16 sec per injection and a spacing of 240 sec between injection. The data were analysed with the MicroCal ORIGIN software package employing a single binding site model. The first data point was excluded from the analysis.
(§3) Thermodynamic parameters were calculated (∆G = ∆H q T∆S = qRTlnKB where ∆G, ∆H and ∆S are the changes in free energy, enthalpy and entropy of binding, respectively).
(§4) Temperature shift assays have been carried out as described in Fedorov et al. 2.
(§5) Fluorescence recovery after photobleaching (FRAP)
(§6) The TRIM24 FRAP assay has been carried out as described in Philpott et al.3. […]

[2] = target: T1, PHD/bromodomain of TRIM24 (Homo sapiens, UniProt O15164); experiment: Isothermal titration calorimetry, TRIM24; conditions: single binding site model
T1 construct: His6 (N, cleaved yes); SUMO-1 (N, cleaved yes); made in house; host or cells: E. coli BL21(DE3)-R3-pRARE2
T1 sequence (O15164 825-1006): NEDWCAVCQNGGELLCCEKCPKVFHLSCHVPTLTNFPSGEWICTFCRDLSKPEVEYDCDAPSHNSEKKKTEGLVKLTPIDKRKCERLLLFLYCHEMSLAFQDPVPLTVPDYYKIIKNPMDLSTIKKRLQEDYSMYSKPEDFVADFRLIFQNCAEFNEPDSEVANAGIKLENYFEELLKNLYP

BRD1 (BRPF2) bromodomain = target: T2, BRD1 (BRPF2) bromodomain (Homo sapiens, UniProt O95696); experiment: Isothermal titration calorimetry, BRD1; conditions: single binding site model
T2 sequence (O95696 562-666 limits assumed): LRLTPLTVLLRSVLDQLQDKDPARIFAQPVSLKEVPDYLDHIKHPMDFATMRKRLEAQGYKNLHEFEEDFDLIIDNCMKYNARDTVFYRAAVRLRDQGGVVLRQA

[3] = test system: MCF-7 breast cancer cell line; experiment: Cytotoxicity assay (CellTiter-Glo), MCF-7; assay type: cell-based; conditions: 72 hours, concentration range tested
Description: as §1, §2, §3, §4, §5, §6

[4] = target: T3, triplicated BRPF1B bromodomain construct with nuclear localization signal (Homo sapiens, UniProt P55201); experiment: FRAP assay, BRPF1B; assay type: cell-based; conditions: with SAHA
T3 sequence (P55201 628-732 limits assumed): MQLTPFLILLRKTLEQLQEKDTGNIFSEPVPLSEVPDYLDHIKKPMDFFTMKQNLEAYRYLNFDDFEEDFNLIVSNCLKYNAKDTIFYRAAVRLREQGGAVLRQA

[5] = target: T4, BRPF1 bromodomain (BRPF1B) (Homo sapiens, UniProt P55201); experiment: Isothermal titration calorimetry, BRPF1; conditions: single binding site model
T4 sequence (P55201 628-732 limits assumed): T3 sequence (P55201 628-732 limits assumed)

[6] = target: T5, full length TRIM24 fused to GFP (Homo sapiens, UniProt O15164); experiment: FRAP assay, TRIM24; assay type: cell-based; conditions: 1 μM, compared with N980F mutant
T5 sequence (O15164 1-1050): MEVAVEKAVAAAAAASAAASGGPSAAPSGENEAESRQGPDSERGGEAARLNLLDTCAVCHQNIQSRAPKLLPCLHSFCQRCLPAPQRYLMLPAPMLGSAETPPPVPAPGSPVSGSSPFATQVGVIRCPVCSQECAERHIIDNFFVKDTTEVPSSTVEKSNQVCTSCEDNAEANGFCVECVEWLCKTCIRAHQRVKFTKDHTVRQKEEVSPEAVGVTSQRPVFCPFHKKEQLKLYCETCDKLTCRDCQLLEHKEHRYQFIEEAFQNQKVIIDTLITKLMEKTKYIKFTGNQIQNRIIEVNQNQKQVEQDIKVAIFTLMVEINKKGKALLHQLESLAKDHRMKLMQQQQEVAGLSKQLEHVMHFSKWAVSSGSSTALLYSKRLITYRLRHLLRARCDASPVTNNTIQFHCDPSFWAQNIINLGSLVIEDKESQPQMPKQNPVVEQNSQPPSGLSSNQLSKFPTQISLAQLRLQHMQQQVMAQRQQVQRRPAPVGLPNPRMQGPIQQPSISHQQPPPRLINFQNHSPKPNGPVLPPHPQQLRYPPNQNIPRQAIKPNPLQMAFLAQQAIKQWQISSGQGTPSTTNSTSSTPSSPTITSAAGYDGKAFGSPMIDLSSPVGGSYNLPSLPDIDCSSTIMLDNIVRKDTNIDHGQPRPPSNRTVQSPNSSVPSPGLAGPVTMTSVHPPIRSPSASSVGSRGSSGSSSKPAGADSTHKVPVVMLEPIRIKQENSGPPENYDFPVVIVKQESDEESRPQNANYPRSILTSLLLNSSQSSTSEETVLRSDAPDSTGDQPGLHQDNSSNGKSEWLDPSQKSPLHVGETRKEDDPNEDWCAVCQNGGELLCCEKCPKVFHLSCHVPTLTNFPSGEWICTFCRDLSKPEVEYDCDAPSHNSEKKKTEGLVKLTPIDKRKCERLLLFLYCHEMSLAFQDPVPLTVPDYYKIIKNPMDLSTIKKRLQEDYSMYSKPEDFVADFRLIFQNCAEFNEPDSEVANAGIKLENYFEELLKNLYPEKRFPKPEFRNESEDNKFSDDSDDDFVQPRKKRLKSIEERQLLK

[7] = test system: panel of 45 human bromodomains; experiment: Temperature shift assay, bromodomain selectivity panel; assay type: binding; conditions: 45 bromodomains; ΔTm smaller than 1 degree not considered significant
TRIM24 bromodomain = target: T6, TRIM24 bromodomain (Homo sapiens, UniProt O15164); experiment: AlphaScreen assay, TRIM24 bromodomain; assay type: binding; conditions: 6-methoxy (R2) analogues
T6 sequence (O15164 899-1004 limits assumed): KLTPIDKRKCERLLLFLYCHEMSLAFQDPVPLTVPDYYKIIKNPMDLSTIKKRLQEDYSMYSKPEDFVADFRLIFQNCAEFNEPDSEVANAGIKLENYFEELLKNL
Description: However, the most interesting compounds of this series (3–5) also had 3–4 μM activity against TRIM24, which prompted us to explore this scaffold for the development of TRIM24 inhibitors (Table 1).

| N (ITC stoichiometry), TRIM24 [2] | N (ITC stoichiometry), BRD1 (BRD1 (BRPF2) bromodomain) | fluorescent recovery time, BRPF1B FRAP (in words) [4] | N (ITC stoichiometry), BRPF1B [5] | activity against TRIM24 (in words) (TRIM24 bromodomain) | SMILES | cytotoxicity in cancer cell lines (in words) [1] | sensitivity of MCF-7 (in words) [3] | fluorescent recovery half-time, TRIM24 FRAP (in words) [6] | selectivity in temperature shift (ΔTm) panel (in words) [7] |
| --- | --- | --- | --- | --- | --- | --- | --- | --- | --- |
| 0.923 ± 0.003 | 1.127 ± 0.02 | reduced recovery times | 0.996 ± 0.002 |  | COc1ccc(Oc2cc3c(cc2NS(=O)(=O)c2ccc(OC)c(OC)c2)n(C)c(=O)n3C)cc1 [Compound 34] | no significant cytotoxicity | resistant | effectively reduced fluorescent recovery half-time | excellent selectivity of 34 for BRPF1B/2 and TRIM24 |
|  |  |  |  | lost activity against TRIM24 | COc1cc2c(cc1NS(=O)(=O)c1ccc(Br)cc1C)n(C)c(=O)n2C [Compound 8] |  |  |  |  |
